Laboratory results reported in the supplement of paper PMC9549728.
Where a name gives a salt, the structure may show the parent alone.

System: murine normal gastric organoid
Test: IC50 (viability, PrestoBlue) (log10 nM)
Conditions: exposure time: 72 h
Method in brief: (§1)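 Compounds diluted in DMSO were pre-spotted into 384-well plates at nine final concentrations (6.7–25,004 nM), and mechanically dissociated murine gastric corpus organoids, uninduced or Cre-induced (RAS-activated, WNT-activated, diffuse), were seeded in 15 μl Matrigel with 45 μl medium on top for 72 h. Viability was then read as fluorescence at 560/590 nm after 3 h at 37°C with 1× final PrestoBlue. IC50 values were derived by non-linear regression in Prism and are given in log10 nM, averaged over three passages with two wells each.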

In order of rising “IC50 (log10 nM)” value:
1. CC(=O)Nc1cccc(-n2c(=O)n(C3CC3)c(=O)c3c(Nc4ccc(I)cc4F)n(C)c(=O)c(C)c32)c1 [Trametinib]  1.36
2. COC1=CC(c2cc3ccccc3[nH]2)=N/C1=C\c1[nH]c(C)cc1C [Obatoclax]  2.31
3. CCCCC(=O)OCC(=O)[C@]1(O)Cc2c(O)c3c(c(O)c2[C@@H](O[C@H]2C[C@H](NC(=O)C(F)(F)F)[C@H](O)[C@H](C)O2)C1)C(=O)c1c(OC)cccc1C3=O [Valrubicin]  2.43
4. CCNC(=O)C[C@@H]1N=C(c2ccc(Cl)cc2)c2cc(OC)ccc2-n2c(C)nnc21  2.77
5. COc1cc2c(Oc3ccc4[nH]c(C)cc4c3F)ncnc2cc1OCCCN1CCCC1 [Cediranib maleate]  3.38
6. CN(Cc1cnc2nc(N)nc(N)c2n1)c1ccc(C(=O)N[C@@H](CCC(=O)O)C(=O)O)cc1 [Methotrexate]  3.41
7. CC(=O)c1c(C)c2cnc(Nc3ccc(N4CCNCC4)cn3)nc2n(C2CCCC2)c1=O [Palbociclib]  4.24
8. CC(=O)Nc1ccc(C(=O)Nc2ccccc2N)cc1 [Tacedinaline]  4.34
9. Cn1nnc2c(C(N)=O)ncn2c1=O [Temozolomide]  4.37
10. CN(N=O)C(=O)N[C@@H](C=O)[C@@H](O)[C@H](O)[C@H](O)CO [Streptozocin]  4.39

System: murine gastric organoid RAS-activated (Kras G12D; Tp53 R172H)
Test: IC50 (viability, PrestoBlue) (log10 nM)
Conditions: exposure time: 72 h
Method in brief: as §1

First: CCCCC(=O)OCC(=O)[C@]1(O)Cc2c(O)c3c(c(O)c2[C@@H](O[C@H]2C[C@H](NC(=O)C(F)(F)F)[C@H](O)[C@H](C)O2)C1)C(=O)c1c(OC)cccc1C3=O [Valrubicin]
Second: COc1cc2c(Oc3ccc4[nH]c(C)cc4c3F)ncnc2cc1OCCCN1CCCC1 [Cediranib maleate]
The “IC50 (log10 nM)” value of the first is lower: 2.49 for the first, 2.93 for the second.

First: CC(=O)Nc1cccc(-n2c(=O)n(C3CC3)c(=O)c3c(Nc4ccc(I)cc4F)n(C)c(=O)c(C)c32)c1 [Trametinib]
Second: CC(=O)Nc1ccc(C(=O)Nc2ccccc2N)cc1 [Tacedinaline]
The “IC50 (log10 nM)” value of the first is lower: 1.33 for the first, 3.87 for the second.

First: CCNC(=O)C[C@@H]1N=C(c2ccc(Cl)cc2)c2cc(OC)ccc2-n2c(C)nnc21
Second: COC1=CC(c2cc3ccccc3[nH]2)=N/C1=C\c1[nH]c(C)cc1C [Obatoclax]
The “IC50 (log10 nM)” value of the first is higher: 3.3 for the first, 2.81 for the second.

Going from CC(=O)c1c(C)c2cnc(Nc3ccc(N4CCNCC4)cn3)nc2n(C2CCCC2)c1=O [Palbociclib] to Cn1nnc2c(C(N)=O)ncn2c1=O [Temozolomide], the “IC50 (log10 nM)” value rises from 4.07 to > 4.4.

Compared with CN(N=O)C(=O)N[C@@H](C=O)[C@@H](O)[C@H](O)[C@H](O)CO [Streptozocin], CN(Cc1cnc2nc(N)nc(N)c2n1)c1ccc(C(=O)N[C@@H](CCC(=O)O)C(=O)O)cc1 [Methotrexate] is lower in “IC50 (log10 nM)” value: > 4.4 for the first, 3.43 for the second.

System: murine gastric organoid WNT-activated (Apc fl/fl; Tp53 R172H)
Test: IC50 (viability, PrestoBlue) (log10 nM)
Conditions: exposure time: 72 h
Method in brief: as §1

First: CCCCC(=O)OCC(=O)[C@]1(O)Cc2c(O)c3c(c(O)c2[C@@H](O[C@H]2C[C@H](NC(=O)C(F)(F)F)[C@H](O)[C@H](C)O2)C1)C(=O)c1c(OC)cccc1C3=O [Valrubicin]
Second: COc1cc2c(Oc3ccc4[nH]c(C)cc4c3F)ncnc2cc1OCCCN1CCCC1 [Cediranib maleate]
The “IC50 (log10 nM)” value of the first is higher: 2.65 for the first, < 0.826 for the second.

First: CC(=O)Nc1cccc(-n2c(=O)n(C3CC3)c(=O)c3c(Nc4ccc(I)cc4F)n(C)c(=O)c(C)c32)c1 [Trametinib]
Second: CC(=O)Nc1ccc(C(=O)Nc2ccccc2N)cc1 [Tacedinaline]
The “IC50 (log10 nM)” value of the first is lower: 1.9 for the first, 4.35 for the second.

Compared with CCNC(=O)C[C@@H]1N=C(c2ccc(Cl)cc2)c2cc(OC)ccc2-n2c(C)nnc21, COC1=CC(c2cc3ccccc3[nH]2)=N/C1=C\c1[nH]c(C)cc1C [Obatoclax] is higher in “IC50 (log10 nM)” value: 1.54 for the first, 2.26 for the second.

CC(=O)c1c(C)c2cnc(Nc3ccc(N4CCNCC4)cn3)nc2n(C2CCCC2)c1=O [Palbociclib] and Cn1nnc2c(C(N)=O)ncn2c1=O [Temozolomide] are within 0.2 log units of each other in “IC50 (log10 nM)” value: 4.13 for the first, 4.02 for the second.

Going from CN(N=O)C(=O)N[C@@H](C=O)[C@@H](O)[C@H](O)[C@H](O)CO [Streptozocin] to CN(Cc1cnc2nc(N)nc(N)c2n1)c1ccc(C(=O)N[C@@H](CCC(=O)O)C(=O)O)cc1 [Methotrexate], the “IC50 (log10 nM)” value rises from 4.07 to 4.36.

System: murine gastric organoid diffuse (Cdh1 fl/fl; Apc fl/fl)
Test: IC50 (viability, PrestoBlue) (log10 nM)
Conditions: exposure time: 72 h
Method in brief: as §1

CCCCC(=O)OCC(=O)[C@]1(O)Cc2c(O)c3c(c(O)c2[C@@H](O[C@H]2C[C@H](NC(=O)C(F)(F)F)[C@H](O)[C@H](C)O2)C1)C(=O)c1c(OC)cccc1C3=O [Valrubicin] and COc1cc2c(Oc3ccc4[nH]c(C)cc4c3F)ncnc2cc1OCCCN1CCCC1 [Cediranib maleate] are within 0.2 log units of each other in “IC50 (log10 nM)” value: 2.58 for the first, 2.67 for the second.

Going from CC(=O)Nc1cccc(-n2c(=O)n(C3CC3)c(=O)c3c(Nc4ccc(I)cc4F)n(C)c(=O)c(C)c32)c1 [Trametinib] to CC(=O)Nc1ccc(C(=O)Nc2ccccc2N)cc1 [Tacedinaline], the “IC50 (log10 nM)” value rises from 1.71 to 3.97.

CCNC(=O)C[C@@H]1N=C(c2ccc(Cl)cc2)c2cc(OC)ccc2-n2c(C)nnc21 and COC1=CC(c2cc3ccccc3[nH]2)=N/C1=C\c1[nH]c(C)cc1C [Obatoclax] are within 0.2 log units of each other in “IC50 (log10 nM)” value: 3.13 for the first, 3.06 for the second.

Compared with CC(=O)c1c(C)c2cnc(Nc3ccc(N4CCNCC4)cn3)nc2n(C2CCCC2)c1=O [Palbociclib], Cn1nnc2c(C(N)=O)ncn2c1=O [Temozolomide] is higher in “IC50 (log10 nM)” value: 4.37 for the first, > 4.4 for the second.

CN(N=O)C(=O)N[C@@H](C=O)[C@@H](O)[C@H](O)[C@H](O)CO [Streptozocin] and CN(Cc1cnc2nc(N)nc(N)c2n1)c1ccc(C(=O)N[C@@H](CCC(=O)O)C(=O)O)cc1 [Methotrexate] cannot be ordered by “IC50 (log10 nM)” value: > 4.4 for the first, > 4.4 for the second.
